# Experimental data from publication PMC10758781 (Heliyon, 2023).
# pEC50: −log10 of the molar value. Read-outs that look alike come from different tables or passages of the source. *1 amine or outer side, *2 acyl side, *3 side chain or, on linkers, in order; H or OH if unused. Where a SMILES comes first, the peptide text is derived from it. Bridges are numbered along the chain shown (N, C = ends). Roman numbers before positions name the chains, in order. [ ]: non-standard residue; d: D form. Actinocin(9to1) = Cc1c2oc3c(C)ccc(C(=O)[*:1])c3nc-2c(C(=O)[*:2])c(N)c1=O; NMeV = CN[C@H](C(=O)O)C(C)C; Sar = CNCC(=O)O
# Key:
# ERβ LBD = ERβ LBD only, without NLS; ref ToxCast [23]; cited from earlier work
# ERβ [1] = biological target: T1, ERβ (Homo sapiens, UniProt Q92731); format: cell-based; conditions: for decrease of E2-induced stimulation of dsRED2 mRNA / decrease of basal dsRED2 mRNA transcription: 2-h, 4HT, ICI, PHTTP 1 μM, ActD 1 μg/ml, Flavo 100 nM; for decrease of E2-induced stimulation of dsRED2 mRNA: plus E2 10 nM; for decrease of basal dsRED2 mRNA transcription: without E2
# T1 sequence (Q92731 whole entry): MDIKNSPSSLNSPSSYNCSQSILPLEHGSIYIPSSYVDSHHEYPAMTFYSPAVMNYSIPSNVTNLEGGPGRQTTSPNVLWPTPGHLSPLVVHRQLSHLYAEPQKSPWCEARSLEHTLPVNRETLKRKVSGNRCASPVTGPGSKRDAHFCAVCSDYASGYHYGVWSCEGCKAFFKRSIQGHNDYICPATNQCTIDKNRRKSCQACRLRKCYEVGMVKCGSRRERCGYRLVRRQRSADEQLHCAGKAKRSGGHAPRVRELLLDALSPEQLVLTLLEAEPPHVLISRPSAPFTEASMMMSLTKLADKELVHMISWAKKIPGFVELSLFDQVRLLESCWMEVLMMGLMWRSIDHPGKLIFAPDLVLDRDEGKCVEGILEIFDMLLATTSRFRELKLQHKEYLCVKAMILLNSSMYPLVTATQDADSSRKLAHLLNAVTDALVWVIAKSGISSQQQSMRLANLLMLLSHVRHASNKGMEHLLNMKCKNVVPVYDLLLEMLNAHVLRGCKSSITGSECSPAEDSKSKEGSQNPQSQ
# ERβ [2] = biological target: T1, ERβ; format: cell-based; conditions: for activity in GFP-ERβ:PRL-HeLa, EPA45 batch received: first batch of EPA45 chemicals; for effect on array size and dsRED2 features (in words): EPA45 library, 6-point dose-response
# zERβ2 = format: in vivo, zebrafish; conditions: 3 dpf; for Liver GFP signal, number of zebrafish: total fish in next column
# zebrafish = conditions: 3 dpf; for Toxicity, number of zebrafish: total fish in next column
# [3] = system: zebrafish ERs (zERα, zERβ1, and zERβ2); format: in vivo; conditions: 3 dpf
# zERα = biological target: T2, zERα (Danio rerio, UniProt P57717); format: in vivo, zebrafish; conditions: 3 dpf
# T2 sequence (P57717 1-569): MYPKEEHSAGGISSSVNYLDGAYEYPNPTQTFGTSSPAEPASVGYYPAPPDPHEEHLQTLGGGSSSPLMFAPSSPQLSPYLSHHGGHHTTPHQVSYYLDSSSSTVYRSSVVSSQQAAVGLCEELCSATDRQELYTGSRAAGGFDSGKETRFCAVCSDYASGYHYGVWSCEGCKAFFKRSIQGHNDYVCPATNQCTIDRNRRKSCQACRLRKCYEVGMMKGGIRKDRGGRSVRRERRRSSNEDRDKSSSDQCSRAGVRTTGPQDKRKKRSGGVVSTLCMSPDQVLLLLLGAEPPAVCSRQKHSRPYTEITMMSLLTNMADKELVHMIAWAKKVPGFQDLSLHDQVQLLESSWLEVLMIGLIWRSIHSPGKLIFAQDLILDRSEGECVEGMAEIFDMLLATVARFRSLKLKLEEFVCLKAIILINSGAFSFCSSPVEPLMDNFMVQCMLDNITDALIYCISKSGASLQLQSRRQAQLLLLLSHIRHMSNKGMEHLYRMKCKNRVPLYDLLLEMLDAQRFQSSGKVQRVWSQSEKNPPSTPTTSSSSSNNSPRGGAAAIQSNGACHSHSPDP
# [4] = system: zebrafish ERs (zERα, zERβ1, and zERβ2); conditions: read-out: EC50 in ERE:GFP zebrafish; previously published results; ref [36],[37]; cited from earlier work
# [5] = time course, E2 10 nM, 4HT 100 nM
# [6] = both concentrations tested (2 and 20 μM)
structure (smiles),measurement,setting,value
COc1ccc(C(c2ccc(OC)cc2)C(Cl)(Cl)Cl)cc1 [methoxychlor],activity in BiFC ERβ dimerization assay,ERβ LBD,hits
"C[C@]12CC[C@@H]3c4ccc(O)cc4C[C@@H](CCCCCCCCC[S+]([O-])CCCC(F)(F)C(F)(F)F)[C@H]3[C@@H]1CC[C@@H]2O (some centres unmarked) [ICI182,780, ICI 182,780]",decrease of E2-induced stimulation of dsRED2 mRNA,ERβ [1],> 2 fold
same,decrease of basal dsRED2 mRNA transcription,ERβ [1],> 2 fold
"CC/C(=C(\c1ccc(O)cc1)c1ccc(OCCN(C)C)cc1)c1ccccc1 [4HT, 4-Hydroxytamoxifen]",decrease of E2-induced stimulation of dsRED2 mRNA,ERβ [1],> 2 fold
same,decrease of basal dsRED2 mRNA transcription,ERβ [1],> 2 fold
same,intensity of dsRED2 RNA signal at the array (in words),"ERβ [1]; 4HT 100 nM, vs DMSO",diminishing significantly
same,"Z-prime, Array Size","ERβ [2]; 384 well plates, four technical and four biological replicates",0.61 ± 0.13
same,change in array size vs DMSO (in words),ERβ [2]; [5],decreasing it
same,change in nuclear GFP-ERβ levels (in words),ERβ [2]; [5],increase in GFP-ERβ signal within the nucleus
"Cc1c2oc3c(C)ccc(C(=O)N[C@@H]4C(=O)N[C@H](C(C)C)C(=O)N5CCC[C@H]5C(=O)N(C)CC(=O)N(C)[C@@H](C(C)C)C(=O)O[C@@H]4C)c3nc-2c(C(=O)N[C@@H]2C(=O)N[C@H](C(C)C)C(=O)N3CCC[C@H]3C(=O)N(C)CC(=O)N(C)[C@@H](C(C)C)C(=O)O[C@@H]2C)c(N)c1=O [actinomycin D] (I: T[dV]P[Sar][NMeV] / II: T[dV]P[Sar][NMeV]; ester I:1-I:C, II:1-II:C; linker I:N-II:N via Actinocin(9to1))",decrease of E2-induced stimulation of dsRED2 mRNA,ERβ [1],> 2 fold
same,decrease of basal dsRED2 mRNA transcription,ERβ [1],> 2 fold
O=c1c(O)c(-c2ccc(O)cc2)oc2cc(O)cc(O)c12 [Kaempferol],"Liver (zERβ/hERα), zebrafish with GFP signal / total",zERβ2; 2 μM,0/18
same,"Liver (zERβ/hERα), zebrafish with GFP signal / total",zERβ2; 20 μM,0/18
same,Dead/Abnormal zebrafish / total,zebrafish; 2 μM,0/18
same,Dead/Abnormal zebrafish / total,zebrafish; 20 μM,0/18
OC(c1ccc(Cl)cc1)(c1cncnc1)c1ccccc1Cl (centres unmarked) [fenarimol],activity in BiFC ERβ dimerization assay,ERβ LBD,hits
"Oc1ccc(-c2c(-c3ccccc3)nn3c(C(F)(F)F)cc(C(F)(F)F)nc23)cc1 [PHTTP, 4-[2-phenyl-5,7-bis(trifluoromethyl)pyrazolo[1,5-a]pyrimidin-3-yl]phenol]",decrease of E2-induced stimulation of dsRED2 mRNA,ERβ [1],> 2 fold
same,decrease of basal dsRED2 mRNA transcription,ERβ [1],> 2 fold
same,ER subtype preference across array metrics,"ERβ [2]; GFP-ERβ:PRL-HeLa vs GFP-ERα:PRL-HeLa, 2-h, 10pM to 1 μM",preference for ERβ
"O=c1c(-c2ccc(O)cc2)coc2cc(O)cc(O)c12 [genistein, Genistein]",tissue GFP signal (in words),[3]; 1 μM,only heart valve signal
same,tissue GFP signal (in words),[3]; 10 μM,heart valve and liver signal
same,"Liver GFP signal, number of zebrafish",zERβ2; 1 μM,0
same,"Liver GFP signal, number of zebrafish",zERβ2; 10 μM,12
same,"Liver GFP signal, number of zebrafish",zERβ2; 100 μM,6
same,"Toxicity, number of zebrafish",zebrafish; 1 μM,0
same,"Toxicity, number of zebrafish",zebrafish; 10 μM,0
same,"Toxicity, number of zebrafish",zebrafish; 100 μM,12
CC(C)(c1ccc(O)cc1)c1ccc(O)cc1 [bisphenol A],"activity in GFP-ERβ:PRL-HeLa, EPA45 batch received",ERβ [2]; 2-h,inactive
same,"activity in GFP-ERβ:PRL-HeLa, independent batches",ERβ [2]; independent batches of the chemicals,confirmed activity
CCC1(c2ccccc2)C(=O)NC(=O)NC1=O [Phenobarbital sodium],tissue GFP signal (in words),[3]; [6],showed GFP signal in both the liver and heart valve
same,"Liver (zERβ/hERα), zebrafish with GFP signal / total",zERβ2; 2 μM,16/18
same,"Liver (zERβ/hERα), zebrafish with GFP signal / total",zERβ2; 20 μM,16/18
same,"Heart (zERα/hERβ), zebrafish with GFP signal / total",zERα; 2 μM,17/18
same,"Heart (zERα/hERβ), zebrafish with GFP signal / total",zERα; 20 μM,14/18
same,activity in BiFC ERβ dimerization assay,ERβ LBD,no effect
same,effect on array size and dsRED2 features (in words),ERβ [2]; 2-h,showed response in both features
same,Dead/Abnormal zebrafish / total,zebrafish; 2 μM,1/18
same,Dead/Abnormal zebrafish / total,zebrafish; 20 μM,1/18
"C[C@]12CC[C@@H]3c4ccc(O)cc4CC[C@H]3[C@@H]1CC[C@@H]2O [E2, Estradiol (17-β)]",lowest concentration inducing GFP signal in both heart valve and liver,[3],10 nM
same,"Liver GFP signal, number of zebrafish",zERβ2; 1 nM,0
same,"Liver GFP signal, number of zebrafish",zERβ2; 10 nM,10
same,"Liver GFP signal, number of zebrafish",zERβ2; 100 nM,12
same,increase of intensity of dsRED2 RNA signal at the array,"ERβ [1]; E2 10 nM, vs DMSO",~3 fold
same,"Toxicity, number of zebrafish",zebrafish; 1 nM,0
same,"Toxicity, number of zebrafish",zebrafish; 10 nM,0
same,"Toxicity, number of zebrafish",zebrafish; 100 nM,0
same,pEC50,[4],8.30 to 8.52
CCCCOC(=O)c1ccccc1C(=O)OCc1ccccc1 [benzylbutylphthalate],activity in BiFC ERβ dimerization assay,ERβ LBD,hits
C[C@@H]1C[C@@H]([C@H](O)CC2CC(=O)NC(=O)C2)C(=O)[C@@H](C)C1 [Cycloheximide],"Liver (zERβ/hERα), zebrafish with GFP signal / total",zERβ2; 2 μM,0/18
same,"Liver (zERβ/hERα), zebrafish with GFP signal / total",zERβ2; 20 μM,1/18
same,activity in BiFC ERβ dimerization assay,ERβ LBD,no effect
same,effect on array size and dsRED2 features (in words),ERβ [2]; 2-h,showed response in both features
same,Dead/Abnormal zebrafish / total,zebrafish; 2 μM,0/18
same,Dead/Abnormal zebrafish / total,zebrafish; 20 μM,8/18
same,toxicity in zebrafish (in words),zebrafish; 2 and 20 μM,mostly toxic
O=C1C2(Cl)C3(Cl)C4(Cl)C(Cl)(Cl)C5(Cl)C3(Cl)C1(Cl)C5(Cl)C24Cl (centres unmarked) [Kepone],"Liver (zERβ/hERα), zebrafish with GFP signal / total",zERβ2; 2 μM,0/18
same,"Liver (zERβ/hERα), zebrafish with GFP signal / total",zERβ2; 20 μM,0/18
same,Dead/Abnormal zebrafish / total,zebrafish; 2 μM,0/18
same,Dead/Abnormal zebrafish / total,zebrafish; 20 μM,0/18
CC/C(=C(/CC)c1ccc(O)cc1)c1ccc(O)cc1 [diethylstilbestrol],"activity in GFP-ERβ:PRL-HeLa, EPA45 batch received",ERβ [2]; 2-h,inactive
CN1CC[C@H](c2c(O)cc(O)c3c(=O)cc(-c4ccccc4Cl)oc23)[C@H](O)C1 [flavopirodol],decrease of E2-induced stimulation of dsRED2 mRNA,ERβ [1],> 2 fold
same,decrease of basal dsRED2 mRNA transcription,ERβ [1],> 2 fold
OC(c1ccc(Cl)cc1)(c1ccc(Cl)cc1)C(Cl)(Cl)Cl [dicofol],activity in BiFC ERβ dimerization assay,ERβ LBD,hits
CCC(C)(c1ccc(O)cc1)c1ccc(O)cc1 [bisphenol B],"activation of dsRED2, independent batch",ERβ [1]; independent batch of the chemical,little activation
same,"activity in GFP-ERβ:PRL-HeLa, EPA45 batch received",ERβ [2]; 2-h,inactive
C[C@]12C[C@H](O)[C@H]3[C@@H](CCC4=CC(=O)CC[C@@]43C)[C@@H]1CC[C@@H]2C(=O)CO [Corticosterone],tissue GFP signal (in words),[3]; [6],showed GFP signal in both the liver and heart valve
same,"Liver (zERβ/hERα), zebrafish with GFP signal / total",zERβ2; 2 μM,18/18
same,"Liver (zERβ/hERα), zebrafish with GFP signal / total",zERβ2; 20 μM,16/18
same,"Heart (zERα/hERβ), zebrafish with GFP signal / total",zERα; 2 μM,18/18
same,"Heart (zERα/hERβ), zebrafish with GFP signal / total",zERα; 20 μM,16/18
same,activity in BiFC ERβ dimerization assay,ERβ LBD,no effect
same,effect on array size and dsRED2 features (in words),ERβ [2]; 2-h,showed response in both features
same,Dead/Abnormal zebrafish / total,zebrafish; 2 μM,0/18
same,Dead/Abnormal zebrafish / total,zebrafish; 20 μM,2/18
